Reference: patent US20260335468A1, “MOLECULAR RADIOAFTERGLOW PROBES FOR CANCER RADIODYNAMIC THERANOSTICS” (NANYANG TECHNOLOGICAL UNIVERSITY, priority 2023, published 2026)

Experiments:
U87 cells = test: Cell viability of U87 cells with IDPASu (Cell Counting Kit-8); type: cell-based, human
Description: All the cells were purchased from the American Type Culture Collection, including CatB-negative cells (mouse embryonic fibroblasts 3T3 cells, RAW 264.7, 293-T and human monocytic THP-1 cells) and CatB-positive cells (human U87 glioblastoma cells, U87-luciferase cells, A549 lung epithelial cells and 4T1 and melanoma B16-F10). All the cells were cultured
in Dulbecco's modified Eagle medium (Gibco) or RPMI 1640 medium containing 10.0% foetal bovine serum (Gibco) and 0.1% ciprofloxacin in a humidified atmosphere containing 5.0% CO2 and 95.0% air at 37° C. To study the cell viability of IDPASu, U87 cells (1×10^4 per well) were seeded on 96-well plates and incubated for 24 h. IDPASu at different concentrations (0, 2.5, 5.0, 10.0, 25.0, 50.0 and 100.0 μM) were added to the U87 cell medium for 12 h incubation. After incubation, 96-well plates were covered with chicken breast tissues with different thicknesses (0, 5, 8 and 15 cm), followed by X-ray irradiation. The X-ray setup was optimized to ensure the cells in all the wells received similar dose of X-ray irradiation (2 Gy) before chicken breast tissue coverage (0 cm). After irradiation, the cells were further incubated for 12 h, followed by the colorimetric Cell Counting Kit-8 assay. Briefly, Cell Counting Kit-8 solution (10 l, Dojindo Molecular Technologies) was added into the cell medium (100 l) for 2 h incubation, and the absorbance of medium at 450 nm was recorded using a microplate reader (ReadMax 1900). The cells without IDPASu incubation and X-ray irradiation were set as control. The cell viability (%) was calculated by the absorbance of treated cells over that of the control cells. To test the cell viability of activatable MRAP, U87 and 3T3 cells (1×10^4 per well) were seeded on 96-well plates and incubated for 24 h. The inhibitor group was pre-treated with a CatB inhibitor (CA-074, 1 mM) for 10 h incubation. MRAP at different concentrations (0, 2.5, 5.0, 10.0, 25.0, 50.0 and 100.0 µM) were added to the U87 and 3T3 cell medium for 12 h incubation. […]

[1] = X-ray-induced NIR afterglow properties (Table 3); conditions: X-ray 0.005 Gy
Excerpt: To enable radio afterglow for organic molecules, we proposed a radiodynamic approach based on organic luminophores (DPAs and IDPAs) that were able to harvest X-ray energy for an in situ cycloaddition reaction to form self-luminescent chemical defects (FIG. 4b). This is mechanistically different from inorganic nanophosphors wherein the host materials (for example, fluoride and aluminosilicate) absorb X-rays, lattice defects delay excitons, and rare-earth/transition metal ion dopants (for example, Nd^3+ and Eu^3+) emit light (Richard, C. & Viana, B., Light.: Sci. Appl. 2022, 11, 123). Because of the presence of heavy atoms (iodine), IDPAs had higher radiodynamic ^1O2 generation and stronger radio afterglow emission than the iodine-free counterpart (DPAs). The radio afterglow dynamic processes of IDPAs were inducible even at a tissue depth of 15 cm, which was impossible when using light.

subcutaneous U87 tumour = test: RDT of subcutaneous U87 tumour-bearing mice with IDPASu; type: in vivo, mouse (BALB/c nude), human U87; conditions: intratumoral, X-ray total 0.3 Gy in three fractions
Description: To establish a subcutaneous glioblastoma mouse model, BALB/c nude mice (six weeks old, female) were anaesthetized with isoflurane (2.0%) and subcutaneously injected with human U87 or U87-Luc (2×10^6 per mouse) suspended in PBS (0.01 M, pH 7.4) on the left flank or bilateral flank of each mouse. The tumour size was calculated according to the formula V=½ab^2, where a and b are the longest and shortest diameter of the tumour, respectively. After tumour sizes reached ~70 mm^3, the mice were used for imaging and therapy. […] At 15 min post-injection, bioluminescence signals were recorded using an IVIS imaging system with an open filter and automatic acquisition time. […]
For subcutaneous tumour therapy, to study the X-ray dynamic activity of IDPASu, U87-tumour-bearing mice were randomly divided into four groups (PBS, PBS+X-ray, IDPASu and IDPASu+X-ray), which includes five mice per group. […] The tumour volume and body weight of mice were monitored every two days. […] The brain tumour size was monitored using bioluminescence signals of luciferin from the tumour site every three days. […]

λem [1]: ~773 nm
SMILES: COC(=C1C2CC3CC(C2)CC1C3)c1cc(O)c(I)cc1/C=C/C1=CC(=C(C#N)C#N)c2ccccc2S1 [IDPASu]
cell viability under X-ray irradiation (U87 cells; 100 μM, X-ray 2 Gy, 100 mGy s^−1 for 20 s, no tissue): 1.4% | cell viability under X-ray irradiation at tissue depth of 15 cm (U87 cells; X-ray through 15 cm chicken breast tissue): 31.9% | afterglow half-life [1]: 18.4 min | afterglow life-time [1]: 25 h | body weight loss (subcutaneous U87 tumour): no loss in body weight | tumour growth (subcutaneous U87 tumour): completely inhibited the tumour growth
